Several values for one entry are separate records, joined by “and”; a condition that tells them apart may be missing. Equal entries are not always repeated.
Experiments:
Assay type in all cases: cell-based
[1] = molecular target: T1, BTK^FL (Homo sapiens, UniProt Q06187+Q13490); assay: Expi293 time-dependent degradation of BTK^FL; conditions: 5 µM; for BTK^FL (WT) blot signal normalized to time 0: replicates
T1 construct: we used a full-length BTK (aa1-659) with a C terminal Tobacco Etch Virus protease (TEV) site; expressed in transfected cells; host or cells: Expi293 (HEK293)
T1 sequence (Q06187 whole entry, the tested form may be a part): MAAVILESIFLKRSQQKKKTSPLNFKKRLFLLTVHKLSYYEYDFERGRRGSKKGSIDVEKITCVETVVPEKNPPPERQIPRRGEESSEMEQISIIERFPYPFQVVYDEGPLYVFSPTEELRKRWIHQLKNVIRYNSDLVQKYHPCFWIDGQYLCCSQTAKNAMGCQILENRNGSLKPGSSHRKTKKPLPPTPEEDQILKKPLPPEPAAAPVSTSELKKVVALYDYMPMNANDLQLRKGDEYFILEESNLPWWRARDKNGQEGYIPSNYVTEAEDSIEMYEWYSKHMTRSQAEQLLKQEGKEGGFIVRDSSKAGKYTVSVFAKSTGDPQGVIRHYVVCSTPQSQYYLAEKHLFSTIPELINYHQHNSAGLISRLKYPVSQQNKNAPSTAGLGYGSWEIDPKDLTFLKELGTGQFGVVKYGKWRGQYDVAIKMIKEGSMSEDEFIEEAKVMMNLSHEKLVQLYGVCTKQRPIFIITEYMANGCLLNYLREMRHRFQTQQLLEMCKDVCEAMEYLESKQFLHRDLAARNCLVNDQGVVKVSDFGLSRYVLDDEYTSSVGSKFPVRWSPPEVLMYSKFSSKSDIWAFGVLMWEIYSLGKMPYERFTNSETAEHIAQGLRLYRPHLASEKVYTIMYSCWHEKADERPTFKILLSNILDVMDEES
T1 sequence (Q13490 whole entry, the tested form may be a part): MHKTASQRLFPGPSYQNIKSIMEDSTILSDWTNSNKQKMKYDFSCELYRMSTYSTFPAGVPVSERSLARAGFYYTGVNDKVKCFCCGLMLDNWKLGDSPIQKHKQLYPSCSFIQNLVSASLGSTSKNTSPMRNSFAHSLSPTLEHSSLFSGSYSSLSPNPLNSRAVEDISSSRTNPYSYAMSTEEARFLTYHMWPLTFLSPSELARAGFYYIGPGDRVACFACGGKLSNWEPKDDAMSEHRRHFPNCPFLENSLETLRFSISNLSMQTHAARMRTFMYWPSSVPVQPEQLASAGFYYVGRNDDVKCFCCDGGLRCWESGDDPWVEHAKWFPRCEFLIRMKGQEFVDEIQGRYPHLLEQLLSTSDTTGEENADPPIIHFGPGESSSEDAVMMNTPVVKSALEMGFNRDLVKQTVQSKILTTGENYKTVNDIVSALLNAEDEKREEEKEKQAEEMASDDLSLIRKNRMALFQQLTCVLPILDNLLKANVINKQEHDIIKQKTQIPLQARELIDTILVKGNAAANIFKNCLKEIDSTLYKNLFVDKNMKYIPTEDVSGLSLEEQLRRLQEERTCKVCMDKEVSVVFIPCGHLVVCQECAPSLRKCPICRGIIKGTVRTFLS
Experimental: (§1) Gibco Expi293 cell line Transfection Kit (Cat.# A14524) was cultured according to the manufacturers conditions. Cells were grown at 37 °C with 5% CO2 to 4 × 10^6 cells/mL using an orbital shaker set to 95 RPM. Next cells were split to 2 × 10^6 cells/mL and transfected with plasmid DNA at a 1 µg/mL final concentration in Optimem (Gibco 31985070) using the Expifectamine 293 transfection reagent according to manufacturer’s conditions. After approximately 18 h, enhancers 1 and 2 (provided with kit). Viability was typically about 85%. When cIAP1^FL was transfected, it was detected via α-cIAP1 antibody there was typically some autoubiquitination detected, and thus often appeared as a laddered or smeared band via western blotting. When BTK^FL variants were transfected, they were detected using anti-BTK antibody (D3H5).
(§2) For covalent modification detection assays, the compound was added to Expi293 cells after enhancer treatment. At each timepoint 10 mL of cells were harvested, rapidly cooled to 4 °C in an ice bath, and centrifuged at 100 x g at 4 °C for 5 min. The pellet was washed twice with ice-cold PBS, snap-frozen in liquid nitrogen, and stored at −80 °C. Each pellet was resuspended in 0.1 mL ice-cold RIPA Buffer supplemented with 40 µM BCNC (to outcompete any remaining BCCov), protease inhibitor, and benzonase, and sonicated with 10 brief blasts at power 20. Lysate was centrifuged at 15 K x g for 20 min at 4 °C and prepared for western blotting as detailed above. When samples were evaluated for covalent adduct formation, a purification step was required. Briefly, the ~1 mL of clarified lysate was added to 9 mL of FLAG binding buffer (25 mM HEPES 7.5, 300 mM NaCl, 10% glycerol). These samples were incubated with 250 µL of anti-FLAG M2 affinity resin (Millipore-Sigma Cat. # A2220) for 3 h at 4 °C with gentle nutation. Samples were washed via gravity column filtration and eluted with 0.2 mg/ml FLAG Peptide (DYKDDDDK, CPC Scientific Peptide Company). Each sample was concentrated to 0.1 mg/mL using an Amicon Ultra-15 Centrifugal filter with a 50 kDa MWCO (Millipore-Sigma Cat. # UFC905024). Details on mass spectrometry analysis are below.

[2] = molecular target: T2, BTK (Homo sapiens, UniProt Q06187+Q13490); assay: THP-1 dose-dependent degradation of endogenous BTK; conditions: replicates
T2 construct: a THP-1 cell line which natively expresses both BTK and cIAP1; host or cells: THP-1
T2 sequence (Q06187 whole entry): as the sequence (Q06187 whole entry, the tested form may be a part) above
T2 sequence (Q13490 whole entry): as the sequence (Q13490 whole entry, the tested form may be a part) above
Experimental: Human monocytic leukemia THP-1 Cells (ATCC TIB202) were grown in RPMI 1640 complete media (Gibco Cat# 11875-093), 10% Heat Inactivated FBS (Gibco Cat# 10438026), 2 mM L-Glutamine (Gibco Cat# 25030-081), 10 mM HEPES (Lonza Cat# 17-737E). Cells were cultured to approximately 0.8 × 10^6 cells/mL, centrifuged at 100 x g at 4 °C for 5 min, and resuspended in growth medium at 1.25 × 10^6 cells/mL, and 750 µL were plated in a 24-well format. Compounds were serially diluted in DMSO and individually added to pre-warmed complete media at a 4x concentration. Subsequently, 250 µL was added to their respective well, making it a 1x concentration. Endpoint viability was ≥95%. Each experiment was performed with n = 3 independent experiments. Three datapoints are missing due to blot.
Dose-dependent Degradation was analyzed using ImageJ (NIH, version 1.50i). Densiometric analysis was performed, normalized to DMSO signal, and analyzed using GraphPad Prism (Version 9.0.0 (121)). Non-linear fit one-phase decay analysis was used to obtain DC50 values. When we observed a hook effect, some points were excluded as part of the fit. In Supplementary Fig. 7B the complete curve was fit using GraphPad Prism non-linear regression bell-shaped curve where X is the concentration. However, using this method we were unable to obtain stable values for our DC50. SEM error was plotted for each point. When determining statistically significant differences, we used a two-sided student’s unpaired T-Test.

[3] = molecular target: T3, BTK^FL-C481S (Homo sapiens, UniProt Q06187+Q13490, C481S); assay: Expi293 time-dependent degradation of BTK^FL-C481S; conditions: 5 µM; for BTK^FL-C481S blot signal normalized to time 0: replicates
T3 construct: we used a full-length BTK (aa1-659) with a C terminal Tobacco Etch Virus protease (TEV) site; expressed in transfected cells; host or cells: Expi293 (HEK293)
T3 sequence (Q06187 whole entry C481S, the tested form may be a part): as the sequence (Q06187 whole entry, the tested form may be a part) above, with C481S counted along it
T3 sequence (Q13490 whole entry, the tested form may be a part): as the sequence (Q13490 whole entry, the tested form may be a part) above
Experimental: as §1, §2

Structure (SMILES)	BTK^FL (WT) blot signal normalized to time 0 ([1]; 0.5 h)	BTK^FL (WT) blot signal normalized to time 0 ([1]; 1 h)	BTK^FL (WT) blot signal normalized to time 0 ([1]; 2 h)	BTK^FL (WT) blot signal normalized to time 0 ([1]; 3.5 h)	BTK^FL (WT) blot signal normalized to time 0 ([1]; 5.5 h)	BTK^FL (WT) blot signal normalized to time 0 ([1]; 7 h)	BTK^FL (WT) blot signal normalized to time 0 ([1]; 17 h)	endogenous BTK blot signal normalized to DMSO ([2]; THP-1, 0.63 uM)	endogenous BTK blot signal normalized to DMSO ([2]; THP-1, 1.25 uM)	endogenous BTK blot signal normalized to DMSO ([2]; THP-1, 2.50 uM)	endogenous BTK blot signal normalized to DMSO ([2]; THP-1, 5.00 uM)	BTK^FL-C481S blot signal normalized to time 0 ([3]; 0.5 h)	BTK^FL-C481S blot signal normalized to time 0 ([3]; 1 h)	BTK^FL-C481S blot signal normalized to time 0 ([3]; 2 h)	BTK^FL-C481S blot signal normalized to time 0 ([3]; 3.5 h)	BTK^FL-C481S blot signal normalized to time 0 ([3]; 5.5 h)	BTK^FL-C481S blot signal normalized to time 0 ([3]; 7 h)	BTK^FL-C481S blot signal normalized to time 0 ([3]; 17 h)	further results
CNC(C)C(=O)NC(C(=O)N1CC(NC(=O)COCCN2CCN(CC=CC(=O)N3CCCC(n4nc(-c5ccc(Oc6ccccc6)cc5)c5c(N)ncnc54)C3)CC2)CC1C(=O)NC1CCCc2ccccc21)C1CCCCC1 (centres unmarked) [BCCov]	0.46 and 0.65 and 0.56	0.26 and 0.42 and 0.40	0.14 and 0.25 and 0.20	0.0842 and 0.15 and 0.20	0.12 and 0.14 and 0.13	0.07 and 0.02 and 0.03	0.00 (2×) and 0.02	0.18 and 0.24 and 0.08	0.13 and 0.23 and 0.0336	0.11 and 0.00 and 0.00241	0.056 and 0.00 (2×)	0.75 and 0.78 and 0.82	0.77 and 0.74 and 0.81	0.71 and 0.76 and 0.72	0.60 and 0.65 and 0.66	0.58 and 0.55 and 0.61	0.41 and 0.48 and 0.42	0.07 (2×) and 0.02	time at which degradation reaches a plateau ([1]; BTK^FL with cIAP1^FL): ≤ 7 h; time at which degradation starts ([1]; BTK^FL with cIAP1^FL): 30 min; endogenous BTK blot signal normalized to DMSO ([2]; THP-1, 0.00488 uM): 1.05 and 0.90 and 1.04; endogenous BTK blot signal normalized to DMSO ([2]; THP-1, 0.01 uM): 1.07 and 1.23 and 0.79; endogenous BTK blot signal normalized to DMSO ([2]; THP-1, 0.02 uM): 0.87 and 1.16 and 0.59; endogenous BTK blot signal normalized to DMSO ([2]; THP-1, 0.04 uM): 0.60 and 1.52 and 0.48; endogenous BTK blot signal normalized to DMSO ([2]; THP-1, 0.08 uM): 0.50 and 0.87 and 0.33; endogenous BTK blot signal normalized to DMSO ([2]; THP-1, 0.16 uM): 0.45 and 0.72 and 0.21; endogenous BTK blot signal normalized to DMSO ([2]; THP-1, 0.31 uM): 0.22 and 0.32 and 0.13; rate of BTK^FL-C481S degradation compared with BTK^FL [3]: slower rate
CNC(C)C(=O)NC(C(=O)N1CC(NC(=O)COCCN2CCN(CCCC(=O)N3CCCC(n4nc(-c5ccc(Oc6ccccc6)cc5)c5c(N)ncnc54)C3)CC2)CC1C(=O)NC1CCCc2ccccc21)C1CCCCC1 (centres unmarked) [BCNC]	0.49 and 0.76 and 0.55	0.28 and 0.42 and 0.35	0.16 and 0.20 and 0.21	0.06 (2×) and 0.10	0.056 and 0.10 and 0.08	0.00935 and 0.01 and 0.09	0.00 and 0.02 (2×)	0.00	0.00	0.00	0.00	0.79 and 0.85 and 0.76	0.74 and 0.81 and 0.78	0.68 and 0.72 and 0.69	0.53 and 0.64 and 0.52	0.35 and 0.44 and 0.38	0.35 and 0.32 and 0.33	0.00 and 0.04 (2×)	endogenous BTK blot signal normalized to DMSO ([2]; THP-1, 0.00488 uM, listed as noncov): 0.97 and 1.25 and 1.03; endogenous BTK blot signal normalized to DMSO ([2]; THP-1, 0.01 uM, listed as noncov): 1.01 and 1.22 and 0.91; endogenous BTK blot signal normalized to DMSO ([2]; THP-1, 0.02 uM, listed as noncov): 1.09 and 1.18 and 0.86; endogenous BTK blot signal normalized to DMSO ([2]; THP-1, 0.04 uM, listed as noncov): 1.06 and 1.18 and 0.70; endogenous BTK blot signal normalized to DMSO ([2]; THP-1, 0.08 uM, listed as noncov): 0.36 and 0.68 and 0.42; endogenous BTK blot signal normalized to DMSO ([2]; THP-1, 0.16 uM, listed as noncov): 0.23 and 0.28 (2×); endogenous BTK blot signal normalized to DMSO ([2]; THP-1, 0.31 uM, listed as noncov): 0.17 and 0.09 and 0.13
